Measured values taken from ChEMBL document CHEMBL1123274, “Azasteroids: structure-activity relationships for inhibition of 5 alpha-reductase and of androgen receptor binding” (J Med Chem, 1986).

Experiments:
[1] = target: T1, Steroid 5-alpha-reductase (Rattus norvegicus, UniProt P24008+P31214); assay: Apparent inhibitory constant value for rat prostatic steroid 5-alpha reductase was determined; format: protein assay
T1 sequence (P24008 whole entry): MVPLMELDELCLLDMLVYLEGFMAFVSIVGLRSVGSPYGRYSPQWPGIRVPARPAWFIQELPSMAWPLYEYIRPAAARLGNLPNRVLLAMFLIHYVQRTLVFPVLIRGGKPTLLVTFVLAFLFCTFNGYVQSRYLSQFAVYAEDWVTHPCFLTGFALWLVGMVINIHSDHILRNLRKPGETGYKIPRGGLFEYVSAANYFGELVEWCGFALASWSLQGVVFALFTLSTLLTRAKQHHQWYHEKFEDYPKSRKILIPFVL
T1 sequence (P31214 whole entry): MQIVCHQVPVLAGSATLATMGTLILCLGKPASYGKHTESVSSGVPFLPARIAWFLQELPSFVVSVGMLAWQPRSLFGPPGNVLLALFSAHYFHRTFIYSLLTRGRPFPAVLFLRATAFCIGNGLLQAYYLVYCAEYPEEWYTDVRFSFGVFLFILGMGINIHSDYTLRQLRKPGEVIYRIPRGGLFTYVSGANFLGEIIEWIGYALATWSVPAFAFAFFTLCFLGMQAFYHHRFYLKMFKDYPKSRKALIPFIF

[2] = target: T1, Steroid 5-alpha-reductase; assay: In vitro inhibitory activity against rat prostatic steroid 5-alpha-reductase; format: protein assay
Androgen receptor = target: T2, Androgen receptor (Rattus norvegicus, UniProt P15207); assay: In vitro antagonist activity against rat prostatic androgen receptor (AR)
T2 sequence (P15207 whole entry): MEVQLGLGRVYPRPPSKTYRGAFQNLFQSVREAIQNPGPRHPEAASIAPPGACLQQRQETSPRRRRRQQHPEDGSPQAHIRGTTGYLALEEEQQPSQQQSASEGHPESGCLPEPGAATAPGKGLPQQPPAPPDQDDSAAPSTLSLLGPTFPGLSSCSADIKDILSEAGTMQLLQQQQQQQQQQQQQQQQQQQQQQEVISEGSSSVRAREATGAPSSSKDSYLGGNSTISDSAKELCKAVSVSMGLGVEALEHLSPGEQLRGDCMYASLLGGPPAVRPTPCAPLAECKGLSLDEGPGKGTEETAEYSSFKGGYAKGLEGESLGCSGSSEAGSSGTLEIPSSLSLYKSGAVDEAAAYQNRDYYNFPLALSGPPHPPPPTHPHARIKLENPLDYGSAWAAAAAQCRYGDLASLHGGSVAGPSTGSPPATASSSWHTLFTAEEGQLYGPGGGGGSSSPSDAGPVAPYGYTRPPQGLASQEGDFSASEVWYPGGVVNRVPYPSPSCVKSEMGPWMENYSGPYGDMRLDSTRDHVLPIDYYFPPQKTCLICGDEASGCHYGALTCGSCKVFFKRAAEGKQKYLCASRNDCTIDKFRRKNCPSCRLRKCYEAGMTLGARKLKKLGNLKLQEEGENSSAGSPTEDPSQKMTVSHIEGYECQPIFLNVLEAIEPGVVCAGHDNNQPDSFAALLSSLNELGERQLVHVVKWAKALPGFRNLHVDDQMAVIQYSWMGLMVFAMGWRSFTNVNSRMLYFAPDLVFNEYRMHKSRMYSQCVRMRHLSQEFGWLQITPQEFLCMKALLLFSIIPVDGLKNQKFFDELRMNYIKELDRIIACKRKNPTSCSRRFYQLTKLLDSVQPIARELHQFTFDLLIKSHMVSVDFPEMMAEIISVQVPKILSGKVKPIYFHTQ

[3] = target: T1, Steroid 5-alpha-reductase; assay: Apparent inhibitory constant value for rat prostatic steroid 5alpha reductase was determined; format: protein assay
[4] = target: T1, Steroid 5-alpha-reductase; assay: Inhibition of Steroid 5-alpha-reductase from rat prostate; format: tissue-based, Prostate gland
[5] = target: T1, Steroid 5-alpha-reductase; assay: Apparent inhibitory constant value for rat prostatic 5-alpha reductase was determined; format: protein assay

## CC(O)[C@@]1(O)CC[C@H]2[C@@H]3CCC4N(C)C(=O)CC[C@]4(C)[C@H]3CC[C@@]21C (stereo partly specified)
[1]
  Ki app: 6 nM
[2]
  IC50: 7.6 nM
Androgen receptor
  IC50: 1900 nM

## CC(C(=O)[O-])[C@H]1CC[C@H]2[C@@H]3CCC4N(C)C(=O)CC[C@]4(C)[C@H]3CC[C@]12C.[Na+] (stereo partly specified)
[1]
  Ki app: 1.7 nM
[2]
  IC50: 1.7 nM
Androgen receptor
  IC50: 46000 nM

## CCN(CC)C(=O)[C@H]1CC[C@H]2[C@@H]3CC[C@H]4N(C)C(=O)CC[C@]4(C)[C@H]3CC[C@]12C
[2]
  IC50: 11 nM
[3]
  Ki app: 5 nM
Androgen receptor
  IC50: 2800 nM

## C[C@]12CC[C@H]3[C@@H](CCC4=CC(=O)CC[C@@]43C)[C@@H]1CC[C@@H]2C(=O)O
Androgen receptor
  IC50: 8900 nM
[4]
  IC50: 660 nM

## C[C@]12CC[C@H]3[C@@H](CCC4NC(=O)CC[C@@]43C)[C@@H]1CC[C@@H]2O (stereo partly specified)
Androgen receptor
  IC50: 930 nM
[4]
  IC50: 250 nM

## COC(=O)[C@H]1CC[C@H]2[C@@H]3CCC4=CC(=O)CC[C@]4(C)[C@H]3CC[C@]12C
Androgen receptor
  IC50: 140 nM
[4]
  IC50: 480 nM

## CCN(CC)C(=O)[C@H]1CC[C@H]2[C@@H]3CCC4=C(C#N)C(=O)CC[C@]4(C)[C@H]3CC[C@]12C
Androgen receptor
  IC50: 1300 nM
[4]
  IC50: 29 nM

## COC(=O)[C@H]1CC[C@H]2[C@@H]3CCC4N(C)C(=O)CC[C@]4(C)[C@H]3CC[C@]12C (stereo partly specified)
[2]
  IC50: 7.6 nM
[5]
  Ki app: 165 nM
Androgen receptor
  IC50: 120 nM

## CC(C)N(C(=O)[C@H]1CC[C@H]2[C@@H]3CCC4NC(=O)CC[C@]4(C)[C@H]3CC[C@]12C)C(C)C (stereo partly specified)
[1]
  Ki app: 13 nM
[2]
  IC50: 11 nM
Androgen receptor
  IC50: > 100000 nM

## C[C@]12CCC(=O)CC1CC[C@@H]1[C@@H]2CC[C@@]2(C)[C@H]1CC[C@@]21CCCO1 (stereo partly specified)
Androgen receptor
  IC50: 23 nM
[4]
  IC50: > 1000 nM

## CN1C(=O)CC[C@@]2(C)C1CC[C@@H]1[C@@H]2CC[C@@]2(C)[C@H]1CC[C@@]21CCCO1 (stereo partly specified)
[1]
  Ki app: 24 nM
[2]
  IC50: 37 nM
Androgen receptor
  IC50: 140 nM

## CCN(CC)C(=O)[C@H]1CC[C@H]2[C@@H]3CC[C@@H]4NC(=O)CC[C@]4(C)[C@H]3CC[C@]12C (stereo in doubt; 9x)
[1]
  Ki app: 29 nM
[2]
  IC50: 41 nM
Androgen receptor
  IC50: > 100000 nM
